“Also recorded” adds a separate entry of the source.

We go through 10 compounds from patent publication US8399425B2, “Alleviating neuropathic pain with EETs and sEH inhibitors” (The Regents of the University of California, priority 2007, dated 2013).

One data set concerns LPS induced hyperalgesia. Put plainly: intraplantar LPS inflammatory pain, thermal hindpaw withdrawal latency. In kind it is in vivo, rat. As to conditions: for inflammatory pain related behavior: LPS inflammation; for analgesic activity of AEPU on co-administration: 10 mg/kg dermal, co-administered with AEPU. The method, then: (§1) Treatments and behavioral nociceptive tests. Behavioral nociceptive testing was conducted by assessing thermal hindpaw withdrawal latencies (TWL) using a commercial Hargreaves (Hargreaves et. al 1998) apparatus (IITC, Woodland Hills, Calif.), or by determining mechanical hindpaw withdrawal thresholds (MWT) using an electronic von Frey anesthesiometer (IITC, Woodland. Hills, Calif.). For DAT determination, a maximum stimulus duration of 22 s was imposed to prevent tissue damage. Following baseline measurements, rats were first treated with 200 μl of vehicle or compound-formulated cream by topical application to one hindpaw, LPS ([…] in 50 μl 0.9% NaCl) was injected into the plantar surface of the treated paw. For subcutaneous administration, compounds were injected immediately after intraplantar LPS. Animals were then placed in acrylic chambers on a glass platform maintained at a temperature of 30±1° C. for measurement or on a wire-mesh platform for MWT measurements. A probe fitted with a filament that is connected to a force transducer was applied to the plantar hind paw surface through a wire-mesh platform until eliciting a withdrawal reflex. The duration of heat application or the force (gr) necessary to elicit a withdrawal was designated as TWL and MWT. The steroidogenesis inhibitors were applied 2 hours before sEHI and LPS administration. Diabetes was induced by intravenous injection of 50 mg/kg streptozocin (STZ) in saline following baseline measurements. Diabetic animals were tested at least one week after STZ administration. Three measurements were taken from each animal at each time point and average responses were converted to percent analgesia index based on each animals' baseline response.

For a further data set, the system named is StAR mRNA. Kind of data set: StAR mRNA expression in spinal cord and brain (qRT-PCR). In kind it is in vivo, rat. As to conditions: for StAR expression in spinal cord and brain: intrathecal, alone, within 30 minutes. The method, then: Blood samples for chemical analysis were collected by cardiac puncture under deep isoflurane anesthesia. Plasma was immediately separated by centrifuging at 4000 rpm for 10 minutes in a cold centrifuge. Rats were then decapitated under anesthesia and tissues were removed and flash frozen in liquid nitrogen. For sampling the brain after decapitation, the scalp was first removed providing accessibility to the cranial plates. A midline incision was introduced to detach the cranial plates and brain was carefully exposed by peeling the plates. The brain was removed from the skull using a spatula, immediately placed in liquid nitrogen, and stored at −80° C. The prefrontal area was removed by a coronal cut to the distal one third of the brain from the frozen tissue. The cerebellum was also removed and the brain was hemisected. […] Plasma hormone levels were quantified using RIA. For quantitative RT-PCR, standard procedures were followed.

The test system of another data set is ICER. Kind of data set: ICER expression in spinal cord. As to conditions: LPS. The format is in vivo, rat. The method, then:
Blood samples for chemical analysis were collected by cardiac puncture under deep isoflurane anesthesia. Plasma was immediately separated by centrifuging at 4000 rpm for 10 minutes in a cold centrifuge. Rats were then decapitated under anesthesia and tissues were removed and flash frozen in liquid nitrogen. For sampling the brain after decapitation, the scalp was first removed providing accessibility to the cranial plates. A midline incision was introduced to detach the cranial plates and brain was carefully exposed by peeling the plates. The brain was removed from the skull using a spatula, immediately placed in liquid nitrogen, and stored at −80° C. The prefrontal area was removed by a coronal cut to the distal one third of the brain from the frozen tissue. The cerebellum was also removed and the brain was hemisected. Saggital slices with a thickness of 2 mm and weighing 100-200 mg were cut from both hemispheres lateral to the thalamus and stored to be used for qRT-PCR or chemical analysis. Plasma hormone levels were quantified using RIA. For quantitative RT-PCR, standard procedures were followed.

A further data set addresses T1, TSPO (Rattus norvegicus, UniProt P16257).
T1 construct: rat heart mitochondria was isolated and incubated with; tissue CEREP (France); host or cells: rat heart mitochondria
Kind of data set: [3H] PK 11195 radioligand displacement from TSPO, rat heart mitochondria. In kind it is binding. To be noted: individual regioisomers compared with the mixture. The protocol:
Binding studies. Radioligand binding studies were conducted by CEREP (France) according to standard procedures as described by LeFur. Briefly, rat heart mitochondria was isolated and incubated with [^3H] PK11195 at 30° C. in the presence of increasing concentrations of EET-me analogues or EET free acids. Reaction mixture was passed through glass wool filters washed 3 times using cold binding buffer and dried by air. Filter were than counted and IC50 values were calculated.

Data set [1] relates to streptozocin induced neuropathic pain. Put plainly: von Frey test (mechanical allodynia) in streptozocin neuropathic rats. The format is in vivo, rat. To be noted: for neuropathic pain, von Frey test: streptozocin (50 mg/kg iv) rats, subcutaneous, dose and time response. The protocol:
Male Sprague-Dawley rats weighing 250-300 grains were used. Animals were individually housed at UC Davis Animal Resource Facility under standard conditions with free access to food and water, and maintained for at least 1 week before the experiments. Pain was quantified using three tests, the hind paw withdrawal latency test, the mechanical hyperalgesia test and the mechanical allodynia test. All the experiments were performed during the daytime.
Rats were first trained to the experimental chamber in two separate sessions. On the day of the induction of neuropathy, the animals' basal response to all three tests were measured and then streptozocin (50 mg/kg) was administered intravenously. Animals were then followed over time for the development of neuropathic pain. An inhibitor of sEH was administered subcutaneously one week after the onset of pain symptoms. […] Compounds were formulated by dissolving them in ethanol and mixing with trans free oleic oil. At least six animals per group were used. The Von Frey test was conducted by stimulating the plantar surface of the rats' hind paw with a calibrated filament connected to a force transducer. As this filament is applied the amount of force exerted on the paw increases and the animal withdraws its paw when the force reaches its threshold. […] In the Randal-Selitto test a similar principle is used. The animals' hind paw is placed between a flat surface and a pointed tip of a force transducer. The pointed tip exerts force on the dorsal face of the paw. […] The two tests are complementary, but depend on the activity of different groups of nociceptors.
as §1, with “Behavioral nociceptive testing was conducted by assessing thermal hindpaw withdrawal latencies (TWL) using a commercial Hargreaves (Hargreaves et. al 1998) apparatus (IITC, Woodland Hills, Calif.), or by determining mechanical hindpaw withdrawal thresholds (MWT) using an electronic von Frey anesthesiometer (IITC, Woodland. Hills, Calif.). For DAT determination, a maximum stimulus duration of 22 s was imposed to prevent tissue damage.” left out, “Animals were then placed in acrylic chambers on a glass platform maintained at a temperature of 30±1° C. for measurement or on a wire-mesh platform for MWT measurements.” left out

The next data set deals with COX-2 mRNA. Kind of data set: spinal COX-2 mRNA after intraplantar LPS. As to conditions: spinal cord. In kind it is in vivo, rat.
For data set [2], the system named is streptozocin induced neuropathic pain. Kind of data set: mechanical hyperalgesia test (Randal-Selitto) in streptozocin neuropathic rats. In kind it is in vivo, rat. The method, then:
Male Sprague-Dawley rats weighing 250-300 grains were used. Animals were individually housed at UC Davis Animal Resource Facility under standard conditions with free access to food and water, and maintained for at least 1 week before the experiments. Pain was quantified using three tests, the hind paw withdrawal latency test, the mechanical hyperalgesia test and the mechanical allodynia test. All the experiments were performed during the daytime. Rats were first trained to the experimental chamber in two separate sessions. On the day of the induction of neuropathy, the animals' basal response to all three tests were measured and then streptozocin (50 mg/kg) was administered intravenously. Animals were then followed over time for the development of neuropathic pain. An inhibitor of sEH was administered subcutaneously one week after the onset of pain symptoms. […] Pain response was measured at 60, 120, 240 and 480 minutes after the administration of the sEHI. Compounds were formulated by dissolving them in ethanol and mixing with trans free oleic oil. At least six animals per group were used. The Von Frey test was conducted by stimulating the plantar surface of the rats' hind paw with a calibrated filament connected to a force transducer. As this filament is applied the amount of force exerted on the paw increases and the animal withdraws its paw when the force reaches its threshold. […] In the Randal-Selitto test a similar principle is used. The animals' hind paw is placed between a flat surface and a pointed tip of a force transducer. The pointed tip exerts force on the dorsal face of the paw. […] The two tests are complementary, but depend on the activity of different groups of nociceptors.

With `CCOCCOCCOCCCCCNC(=O)NC12CC3CC(CC(C3)C1)C2` [AEPU, Adamantan-1-yl-3-{5-[2-(2-ethoxyethoxy)ethoxy]pentyl}urea], in the data set with LPS induced hyperalgesia (50 mg/kg dermally, intraplantar LPS), the “paw withdrawal latency in response to a mild heat stimulus” value is listed as “transiently increased the paw withdrawal latency”. Further, in the data set with LPS induced hyperalgesia, the “inflammatory pain related behavior” value was “had a transient effect on pain however remained analgesic”. Moreover, the results for the “StAR message in the brain” value in the data set with StAR mRNA (compound alone) and in the data set with StAR mRNA (inflamed animals treated with compound) were “neither local inflammation nor AEPU alone elicited an increase” and “two fold increase”, respectively. The “StAR mRNA in the brain” value with StAR mRNA (intrathecal with 8-Br cAMP (100 μg), 30 min) is recorded as “elicited a parallel increase in the brain”. Besides, in the data set with StAR mRNA (intrathecal with 8-Br cAMP (100 μg), 30 min, EETs 5 μg, AEPU 1 μg), the “StAR expression in the spinal cord” value is reported as “increased the expression level of StAR in the spinal cord”. For the same compound, the “StAR expression in spinal cord and brain” value in the data set with StAR mRNA is “did not change”. Moreover, in the data set on ICER, the “increase in ICER message” value is given as “up to 3 fold”.
On to `CCCCCC1OC1C/C=C\C/C=C\C/C=C\CCCC(=O)OC` (centres unmarked) [14,15-EET-me], for which the “activity on TSPO” value at TSPO was “less potent than the mixture were active and more efficacious”.
Same read-out and setting: the same measure for `CCCCC/C=C\C/C=C\C/C=C\CC1OC1CCCC(=O)OC` (centres unmarked) [5,6-EET-me]: “less potent than the mixture were active and more efficacious”.
For `CC(C)(C)NC(=O)[C@H]1CC[C@H]2[C@@H]3CC[C@H]4NC(=O)C=C[C@]4(C)[C@H]3CC[C@]12C` [finasteride, reference compound], in the data set on LPS induced hyperalgesia, the “analgesic activity of AEPU on co-administration” value is “completely abolished”.
Turning to `O=C(NC12CC3CC(CC(C3)C1)C2)N[C@H]1CC[C@H](Oc2ccc(C(=O)O)cc2)CC1` (relative stereo) [t-AUCB, trans-4-[4-(3-adamantan-1-yl-ureido)-cyclohexyloxy]-benzoic acid], the “neuropathic pain, von Frey test” value in data set [1] was “reduced and at higher doses eliminated”.
Turning to `Nc1ncnc2c1nc(Br)n2[C@@H]1O[C@@H]2COP(=O)(O)O[C@H]2[C@H]1O` [8-Br cAMP, reference compound], the “StAR expression in spinal cord and brain” value with StAR mRNA was “did not change”.
For the compound `CCC1(c2ccc(N)cc2)CCC(=O)NC1=O` (centres unmarked) [aminoglutethimide, reference compound], the “analgesic activity of AEPU on co-administration” value with LPS induced hyperalgesia is reported as “completely abolished”.
With `CC(=O)N1CCC(NC(=O)Nc2ccc(OC(F)(F)F)cc2)CC1` [TPAU], in data set [1], the “neuropathic pain, von Frey test” value is “reduced and at higher doses eliminated”. Further, the “analgesic potency compared with morphine” value with LPS induced hyperalgesia (10 mg/kg vs morphine 1 mg/kg) was “potency strikingly comparable to that of a moderate dose of morphine”. For the same compound, the “inflammatory pain related behavior” value in the data set on LPS induced hyperalgesia is on record as “particularly more effective; also recorded: substantially reduced hyperalgesia”. Besides, in the data set on LPS induced hyperalgesia (treated animals), the “response to stimuli, motor activity” value is “no reduction in response to stimuli or gross signs of loss of motor activity”. Also, the “spinal COX-2 mRNA increase” value in the data set on COX-2 mRNA is listed as “particularly more effective”.
For `CCCCC/C=C\C/C=C\CC1OC1C/C=C\CCCC(=O)OC` (centres unmarked) [8,9-EET-me], the “activity on TSPO” value at TSPO is “completely lacked activity”.
`O=C(O)CCCCCCCCCCCNC(=O)NC12CC3CC(CC(C3)C1)C2` [AUDA, 12-(3-Adamantan-1-yl-ureido)dodecanoic acid]: in data set [1] (moderate dose), the “decrease in withdrawal threshold” value is reported as “completely reversed the decrease in withdrawal threshold”. In addition, in data set [1] (neuropathic pain model), the “pain scores of diabetic rats” value was “dose and time dependent improvement in pain scores”. For the same compound, in data set [1] (rat, in vivo), the duration of effect entry is on record as “lost its effect after four hours”. In addition, the “neuropathic pain, von Frey test” value in data set [1] was “reduced neuropathic pain in a dose and time dependant manner”. Besides, the “pain, mechanical hyperalgesia test (FIG. 3)” value in data set [2] (10, 20 and 50 mg/kg) was “reduced pain in a time and dose dependant”. Further, in data set [2] (compound 1010 at equivalent dose), the “mechanical allodynia induced by diabetic neuropathy (FIG. 3 legend)” value is reported as “reversed”.
